Measurements from paper PMC4045324 (Biochemistry, 2014).
Marks after values point to notes of the source that are not given here.

How the values were obtained:
wild-type MtDXR [1] = conditions: ref Liu and Murkin 17; cited from earlier work
DXR = conditions: read-out: Ki values; cited from earlier work
wild-type MtDXR [2] = target: wild-type MtDXR (Mycobacterium tuberculosis, UniProt P9WNS1); assay type: binding
M. tuberculosis = conditions: cited from earlier work
wild-type MtDXR [3] = conditions: pH 7.6; cited from earlier work
P. falciparum = conditions: cited from earlier work
[4] = tested on: CC(=O)[C@@H](O)[C@H](O)COP(=O)(O)O; experiment: purified protein, by the assay type; conditions: pH 7.5; 25.0 °C

wild-type MtDXR (Mycobacterium tuberculosis, UniProt P9WNS1), sequence (P9WNS1 1-389): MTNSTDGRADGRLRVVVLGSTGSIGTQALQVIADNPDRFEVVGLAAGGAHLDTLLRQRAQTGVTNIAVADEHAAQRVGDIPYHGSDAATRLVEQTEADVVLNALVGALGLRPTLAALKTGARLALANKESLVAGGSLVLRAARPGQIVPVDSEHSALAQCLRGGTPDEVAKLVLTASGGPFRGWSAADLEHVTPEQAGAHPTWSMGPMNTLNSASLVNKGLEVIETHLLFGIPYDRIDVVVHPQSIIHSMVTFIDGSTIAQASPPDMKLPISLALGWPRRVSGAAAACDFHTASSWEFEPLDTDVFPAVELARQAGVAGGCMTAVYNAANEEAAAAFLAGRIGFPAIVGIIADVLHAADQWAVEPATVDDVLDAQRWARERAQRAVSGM

Compound: CC(=O)[C@@H](O)[C@H](O)COP(=O)(O)O [DXP, 1-deoxy-D-xylulose 5-phosphate]
- Km (wild-type MtDXR [1]): 115 ± 7 µM

Compound: O=CN(O)CCCP(=O)(O)O [fosmidomycin]
- Ki (DXR): 10 to 100 nM
- enthalpy share of total binding energy (wild-type MtDXR [2]): 50%
- ΔG° (wild-type MtDXR [2]; pH 7.5): –9.82 ± 0.08 kcal/mol
- ΔH° (wild-type MtDXR [2]; pH 7.5): –4.8 ± 0.7 kcal/mol
- –TΔS° (wild-type MtDXR [2]; pH 7.5): –5.0 ± 0.7 kcal/mol
- activity against M. tuberculosis (M. tuberculosis): poorly active
- Kd (wild-type MtDXR [3]): 290 nM
- ΔG° (wild-type MtDXR [3]): –8.34 ^e kcal/mol
- ΔH° (wild-type MtDXR [3]): –6.0 ^e kcal/mol
- –TΔS° (wild-type MtDXR [3]): –2.3 ^e kcal/mol
- treatment of malaria caused by P. falciparum (P. falciparum): effective

Compound: (Mycobacterium tuberculosis H37Rv)
- Km [4]: 137 ± 12 µM
- kcat [4]: 4.2 ± 0.2 s⁻¹
- kcat/Km [4]: 31000 ± 2000 M⁻¹ s⁻¹
